One data set concerns IL-6. Put plainly: Glycated albumin-stimulated endothelial cell production of cytokine IL-6 (ELISA). The following applies: read-out: % of inhibition of proinflammatory cytokine IL-6. It counts as cell-based. From the text:
The effectiveness of the compounds of the present invention in inhibiting glycated protein- and AGE-induced inflammation can be determined using the assays described herein and in U.S. Provisional Patent Application Ser. No. 60/259,306, which is incorporated by reference in herein its entirety. Such assays comprise measurement of the specific activity of biological components involved in a known cellular response. The assays provide a measurable response in which the activity of the compounds is determined. One aspect of the present invention comprises measurement of the effects of compounds on an inflammatory response by cells to the presence of a stimulating agent. […] The amount of cytokines produced is determined by measurement protocols known to those skilled in the art. The compounds of the present invention are then added to the assay and the production of cytokines is measured. From the comparison of the assay without the compound with the assay with the compound, the biological effect of the compound can be determined. […]
Assays comprise endothelial cells that are stimulated in an inflammatory response by the presence of the glycated protein, glycated human serum albumin. […] Preferably, although not required, the amount of cytokine produced is determined using immunological methods, such as ELISA assays. […]
(In general: An ELISA detects its analyte on a solid surface through an enzyme-linked reagent.)

A further data set relates to MCP-1. Nature of the data set: Glycated albumin-stimulated endothelial cell production of cytokine MCP-1 (ELISA). The data set is classed as cell-based. The note with it: read-out: % of inhibition of proinflammatory cytokine MCP-1; for inhibition at 5 µM: concentration 5 μM. From the text: The effectiveness of the compounds of the present invention in inhibiting glycated protein- and AGE-induced inflammation can be determined using the assays described herein and in U.S. Provisional Patent Application Ser. No. 60/259,306, which is incorporated by reference in herein its entirety. Such assays comprise measurement of the specific activity of biological components involved in a known cellular response. The assays provide a measurable response in which the activity of the compounds is determined. One aspect of the present invention comprises measurement of the effects of compounds on an inflammatory response by cells to the presence of a stimulating agent. Yet another aspect of the present invention includes an assay comprising endothelial cells that are stimulated by the addition of a glycated protein, the stimulating agent. The endothelial cells respond by producing specific cytokines. The amount of cytokines produced is determined by measurement protocols known to those skilled in the art. The compounds of the present invention are then added to the assay and the production of cytokines is measured. From the comparison of the assay without the compound with the assay with the compound, the biological effect of the compound can be determined. The compound may have an inhibitory effect, a stimulatory effect, or no effect at all. Compounds for treatment of inflammation include those that have an inhibitory effect.
Assays comprise endothelial cells that are stimulated in an inflammatory response by the presence of the glycated protein, glycated human serum albumin. Such endothelial cells produce cytokines. A method in accordance with the present invention comprises measurement of the amount of the cytokine IL-6, and another aspect of the present invention comprises measurement of the amount of the cytokine MCP-1. Preferably, although not required, the amount of cytokine produced is determined using immunological methods, such as ELISA assays. The methods of the present invention are not limited by the type of assay used to measure the amount of cytokine produced, and any methods known to those skilled in the art and later developed can be used to measure the amount of cytokines produced in response to the stimulating agent and to the compound having unknown activity.
Glycated albumin stimulates endothelial production of IL-6 and MCP-1. […] Because of the well established role of these cytokines in vascular diseases, screening for compounds that block AGE-induction of these cytokines provides a novel approach for identifying therapeutic agents that block AGE-induced inflammation in vivo.
Once the baseline response to the stimulating agent for the production of cytokines by the endothelial cells is established, thus comprising the control levels for the screening assay, the methods comprise addition of compounds having unknown activities. The effect of the compound on the baseline response is determined by comparing the amount of cytokine produced in the presence of the stimulating agent and the amount of cytokine produced in the presence of the stimulating agent and the compound of the present invention. In one method, compounds that have inhibitory effects on the inflammation of the cells in the presence of glycated albumin are then used as therapeutic agents. One or more compounds may be added to the screening assay. Combinations or mixtures of compounds can be added. Different amounts and formulations of the compounds are added to determine the effects on the screening assay. The screening assay also may be used to determine stimulatory compounds or compounds that have no effects in the assay.

On to `C/C(=C1\SC(=O)NC1=O)c1ccc(OCCOc2c(-c3ccc(Cl)cc3)n(C)c3ccccc3c2=O)cc1`, for which the inhibition (commonly the change of the read-out against control, counted positive when it falls) at 5 µM with IL-6 (concentration 5 μM) was 49%.

Consider `C/C(=C1/SC(=O)NC1=O)c1ccc(OCCOc2c(-c3ccc(F)c(F)c3)n(C)c3ccccc3c2=O)c(Cl)c1`, for which the inhibition at 5 µM with MCP-1 came out at 61%.

As for `C/C(=C1\SC(=O)NC1=O)c1ccc(OCCOc2c(-c3ccc(F)cc3)n(C)c3ccccc3c2=O)cc1` [drawing 118], the inhibition at 7.9 µM in the data set with MCP-1 (concentration 7.9 μM) worked out at 50%.

Regarding `C/C(=C1\SC(=O)NC1=O)c1ccc(OCCOc2c(-c3ccc(F)cc3)n(C)c3ccccc3c2=O)cc1` [drawing 117], the inhibition at 4.64 µM in the data set on IL-6 (concentration 4.64 μM) was determined as 50%.

With `CCCc1nn(C)c2c(=O)n(CCNc3ccc(/C(C)=C4\SC(=O)NC4=O)cc3)c(-c3ccc(OC)c(OC)c3)nc12` [Example 46, 5-[(E,Z)-1-(4-{2-[5-(3,4-Dimethoxyphenyl)-1-methyl-7-oxo-3-propyl-6,7-dihydro-1H-pyrazolo[4,3-d]pyrimidin-6-yl]ethylamino}phenyl)ethylidene]1,3-thiazolane-2,4-dione], the melting point – broadly, the temperature of the solid-liquid transition – was 215 to 218 °C.

For `C/C(=C1\SC(=O)NC1=O)c1ccc(OCCOc2c(-c3ccc(F)c(F)c3)n(C)c3ccccc3c2=O)cc1`, in the data set with MCP-1 (concentration 4.4 μM), the inhibition at 4.4 µM turned out to be 50%.

For `C/C(=C1\SC(=O)NC1=O)c1ccc(OCCOc2c(-c3ccc(F)c(F)c3)n(C)c3ccccc3c2=O)c(F)c1`, the inhibition at 7 µM in the data set with MCP-1 (concentration 7 μM) amounted to 50%.

Regarding `CCn1c(-c2ccc(F)cc2)c(OCCOc2ccc(/C(C)=C3/SC(=O)NC3=O)cc2)c(=O)c2ccccc21`, the inhibition at 6.5 µM in the data set with MCP-1 (concentration 6.5 μM) worked out at 50%.

As to `Cn1c(-c2ccc(Br)cc2)c(OCCOc2ccc(/C=C3/SC(=O)NC3=O)cc2)c(=O)c2ccccc21`, the inhibition at 5 µM in the data set with MCP-1 was 44%.

`COc1cc(OC)c2c(=O)c(OCCOc3ccc(/C(C)=C4\SC(=O)NC4=O)cc3)c(-c3ccc(OC)c(OC)c3)oc2c1` [Example 1, 5-[-1-(4-{2-[2-(3,4-Dimethoxyphenyl)-5,7-dimethoxy-4-oxo-4h-3-chromenyloxy]ethoxy}phenyl)ethylidene]-1,3-thiazolane-2,4-dione]: the melting point lay within 205 to 206 °C.

Values taken from patent US7456288B2, “Heterocyclic compounds and methods of making and using thereof” (Reddy US Therapeutics, Inc., priority 2003, dated 2008).
